Measurements as given in patent US4699897A, “Biologically active peptides structurally related to regions within growth hormones” (Amgen, priority 1983, dated 1987).
Square brackets hold non-standard residues; d marks the D form. Peptide text beside a SMILES is read from it.

Experiments:
[1] = test system: normal male Sprague-Dawley rats; test: Insulin potentiating effects in normal rats (plasma glucose after i.p. glucose load); type: in vivo, rat; details: for Plasma Glucose (mg/dL at 60 min.), Glucose + Insulin + Peptide: rats fasted 18 h, i.p. 1.0 ml 0.75M glucose + 15 mU insulin + 25 μg peptide, mean ± standard error
Method: A study was conducted to determine insulin potentiating effects of Peptide Nos. 3, 5, and 6. Also tested was a dipeptide NH2 -Ile-Pro-COOH, a dipeptide outside the scope of the invention. Test groups of 5 normal male Sprague-Dawley rats weighing about 200 grams were fasted for 18 hours and received (intraperitoneally in rapid succession) 1.0 ml of 0.75M glucose, and either 15 mU of insulin with 1% bovine serum ablumin in normal saline (pH 7.4) or a mixture of insulin as above with 25 μg Peptide Nos. 3, 5, 6 and dipeptide. Controls received only bovine serum albumin and saline. Blood was drawn after one hour and plasma glucose levels were determined.

[2] = test system: ob/ob, ob/+, db/db and db/m mice; test: Insulin potentiating effects of Peptide No. 6 compared to DP in mice (plasma glucose); type: in vivo, mouse; details: for Plasma Glucose (mg/dL at 60 min.), Glucose + Insulin + peptide, Mouse db/db / Plasma Glucose (mg/dL at 60 min.), Glucose + Insulin + peptide, Mouse db/m (normal) / Plasma Glucose (mg/dL at 60 min.), Glucose + Insulin + peptide, Mouse ob/+ (normal) / Plasma Glucose (mg/dL at 60 min.), Glucose + Insulin + peptide, Mouse ob/ob: i.p. glucose + insulin 0.001 mU/10 g + peptide 5 μg/10 g
Method: (§1) A study was conducted to determine the relative insulin potentiating effects of Peptide No. 6 as compared to those of deletion peptide ("hGH32-46 ").
(§2) Animals in test groups of five each were meployed in these procedures. Sprague-Dawley rats weighed approximately 200 grams; homozygous genetically abnormal mice (db/db and ob/ob) had weights in the range of 40 to 60 grams; heterozygous normal mice all weighed approximately 25 grams. Glucose was administered intraperitoneally at a dosage of […] of a solution containing 135 mg/ml glucose, except for one group of rats which were given an oral dose of 1 ml of 270 mg/ml glucose solution. Insulin was intraperitoneally administered at a dose of 0.001 mU/10 g and both Peptide No. 6 and deletion peptide were administered were simultaneously administered at a dose of 5 μg/10 g.

db/db mice = test: Insulin potentiating effects on genetically altered mice at differing ages (plasma glucose); type: in vivo, mouse; details: for Plasma Glucose (mg/dL at 60 min.), Age: 8 weeks, Glucose + Insulin + Peptide: db/db mice aged 8 weeks; for Plasma Glucose (mg/dL at 60 min.), Age: 8 weeks, Glucose + Insulin + Peptide / Plasma Glucose (mg/dL at 60 min.), Age: 14 weeks, Glucose + Insulin + Peptide: i.p. glucose + insulin 0.001 mU/10 g + peptide 5 μg/10 g; for Plasma Glucose (mg/dL at 60 min.), Age: 14 weeks, Glucose + Insulin + Peptide: db/db mice aged 14 weeks
Method: A study was conducted to ascertain insulin potentiating effects of Peptide Nos. 6, 9 and 10 on db/db mice aged 8 weeks and 14 weeks.
Test groups of 5 each of db/db mice weighing from 40 to 60 grams each were used. Glucose was administered intraperitoneally at a dosage of […] of a solution containing 135 mg/ml glucose. Insulin was intraperitoneally administered at a dose of 0.001 mU/10 g and Peptide Nos. 6, 9 and 10 were each simultaneously administered at a dose of 5 μg/10 g.

Sprague-Dawley rats = test: Insulin potentiating effects of Peptide No. 6 compared to DP in rats (plasma glucose); type: in vivo; details: for Plasma Glucose (mg/dL at 60 min.), Glucose + Insulin + peptide, Rat (normal): i.p. glucose + insulin 0.001 mU/10 g + peptide 5 μg/10 g
Method: as §1, §2

[3] = test system: normal female Rhesus monkeys; test: Insulin potentiating effects in primates of Peptide No. 6 compared to deletion peptide (plasma glucose); type: in vivo, Rhesus monkey
Method: In a manner analogous to Study C, above, Peptide No. 6 and deletion peptide were studied for insulin potentiating effects in Rhesus monkeys. Blood samples were drawn from normal female monkeys (in […] experimental groups of 3) five minutes before administration of an oral dose of 3.0 ml/kg of 0.5 g/ml glucose and intramuscular administration of either: (1) 0.5 ml/kg phosphate buffered saline (PBS), pH 7.4; (2) deletion peptide 0.1 ml/kg of 1.0 mg/ml solution in PBS; (3) deletion peptide as above combined with 0.5 ml/kg of 20 mU/ml insulin in PBS; or (4) insulin alone as above or (5) Peptide No. 6 0.1 ml/kg of a 0.5 mg/ml solution in PBS combined with insulin as above. Blood samples were then periodically withdrawn over two hours and analyzed for plasma glucose levels.

[4] = test system: insulin-stimulated fat cells of older obese rats; details: cited from earlier work
normal rats [5] = details: cited from earlier work
rabbits = details: cited from earlier work
[6] = test system: various model animal test systems; details: cited from earlier work
[7] = test system: GT-impaired strain of mice (YS/Wf Nctr); details: cited from earlier work
normal rats [8] = details: cited from earlier work; remark: listed apart in the source

## CC[C@H](C)[C@H](N)C(=O)N1CCC[C@H]1C(=O)O [NH2 --Ile--Pro--COOH, NH2 -Ile-Pro-COOH] (H-Ile-Pro-OH)
[1]
  Plasma Glucose (mg/dL at 60 min.), Glucose + Insulin + Peptide: 95 ± 30 mg/dL

## CC[C@H](C)[C@H](NC(=O)[C@H](Cc1ccc(O)cc1)NC(=O)[C@H](C)NC(=O)[C@H](CCC(=O)O)NC(=O)[C@@H](N)CCC(=O)O)C(=O)N1CCC[C@H]1C(=O)N[C@@H](CCCCN)C(=O)O [Peptide No. 6, GLU--GLU--ALA--TYR--ILE--PRO--LYS] (H-EEAYIPK-OH)
[2]
  Plasma Glucose (mg/dL at 60 min.), Glucose + Insulin + peptide, Mouse db/db: 109 ± 22 mg/dL
  Plasma Glucose (mg/dL at 60 min.), Glucose + Insulin + peptide, Mouse db/m (normal): 22 ± 10 mg/dL
  Plasma Glucose (mg/dL at 60 min.), Glucose + Insulin + peptide, Mouse ob/+ (normal): 28.5 ± 5 mg/dL
  Plasma Glucose (mg/dL at 60 min.), Glucose + Insulin + peptide, Mouse ob/ob: 118 ± 20 mg/dL
[2]; mice and rats, Table V
  insulin potentiating effect relative to deletion peptide (in words): uniformly more effective in potentiating insulin effects than deletion peptide alone
db/db mice; db/db mice aged 8 and 14 weeks, Table IV
  insulin potentiating effect (in words): significant effectiveness
db/db mice
  Plasma Glucose (mg/dL at 60 min.), Age: 8 weeks, Glucose + Insulin + Peptide: 92.3 ± 12 mg/dL
  Plasma Glucose (mg/dL at 60 min.), Age: 14 weeks, Glucose + Insulin + Peptide: 124 ± 34 mg/dL
Sprague-Dawley rats
  Plasma Glucose (mg/dL at 60 min.), Glucose + Insulin + peptide, Rat (normal): 52 ± 6 mg/dL
[1]; normal rats, Table III
  insulin potentiating effect (in words): exceptionally active insulin potentiator
[1]
  Plasma Glucose (mg/dL at 60 min.), Glucose + Insulin + Peptide: 52 ± 28 mg/dL
[3]; +5 min., oral glucose + i.m. insulin + peptide 0.1 ml/kg of 0.5 mg/ml
  Plasma Glucose (mg/dL), Glucose + Insulin + Peptide No. 6, +5 min.: 62 ± 6 mg/dL
[3]; +15 min., oral glucose + i.m. insulin + peptide 0.1 ml/kg of 0.5 mg/ml
  Plasma Glucose (mg/dL), Glucose + Insulin + Peptide No. 6, +15 min.: 69.5 ± 6 mg/dL
[3]; +30 min., oral glucose + i.m. insulin + peptide 0.1 ml/kg of 0.5 mg/ml
  Plasma Glucose (mg/dL), Glucose + Insulin + Peptide No. 6, +30 min.: 68 ± 9.7 mg/dL
[3]; +45 min., oral glucose + i.m. insulin + peptide 0.1 ml/kg of 0.5 mg/ml
  Plasma Glucose (mg/dL), Glucose + Insulin + Peptide No. 6, +45 min.: 73 ± 3.5 mg/dL
[3]; +60 min., oral glucose + i.m. insulin + peptide 0.1 ml/kg of 0.5 mg/ml
  Plasma Glucose (mg/dL), Glucose + Insulin + Peptide No. 6, +60 min.: 79 ± 6.5 mg/dL
[3]; +120 min., oral glucose + i.m. insulin + peptide 0.1 ml/kg of 0.5 mg/ml
  Plasma Glucose (mg/dL), Glucose + Insulin + Peptide No. 6, +120 min.: 88 ± 12 mg/dL
[3]; Table VI
  insulin potentiating effect relative to deletion peptide (in words): essentially on par with, or superior on a weight basis to, those of deletion peptide

## synthetic tetradecapeptide having a sequence of amino acids copying residues at positions 31 through 44: literature tetradecapeptide copying hGH residues 31 through 44 (Yudaev et al.) (FEEAYIPKEQKYSF; UniProt P01241 57-70, looked up, fragment)
[4]; Yudaev et al. 1983
  in vitro effect on fat cells: substantially the same in vitro effect on fat cells
Normal rats [5]
  in vivo hypoglycemic effect: absence of any in vivo hypoglycemic effect
rabbits
  in vivo hypoglycemic effect: absence of any in vivo hypoglycemic effect

## CC[C@H](C)[C@H](NC(=O)[C@H](Cc1ccc(O)cc1)NC(=O)[C@@H](C)NC(=O)[C@H](CCC(=O)O)NC(=O)[C@@H](N)CCC(=O)O)C(=O)N1CCC[C@H]1C(=O)N[C@@H](CCCCN)C(=O)O [Peptide No. 9] (H-EE[dA]YIPK-OH)
db/db mice
  Plasma Glucose (mg/dL at 60 min.), Age: 8 weeks, Glucose + Insulin + Peptide: 90.8 ± 16 mg/dL
  Plasma Glucose (mg/dL at 60 min.), Age: 14 weeks, Glucose + Insulin + Peptide: 228 ± 38 mg/dL

## CC[C@H](C)[C@H](NC(=O)[C@H](Cc1ccc(O)cc1)NC(=O)[C@H](C)NC(=O)[C@H](CCC(=O)O)NC(=O)[C@@H](N)CCC(=O)O)C(=O)N1CCC[C@H]1C(=O)N[C@@H](CCCCN)C(=O)N[C@@H](CCC(=O)O)C(=O)N[C@@H](CCC(N)=O)C(=O)N[C@@H](CCCCN)C(=O)N[C@@H](Cc1ccc(O)cc1)C(=O)N[C@@H](CO)C(=O)N[C@@H](Cc1ccccc1)C(=O)N[C@@H](CC(C)C)C(=O)N[C@@H](CCC(N)=O)C(=O)O [hGH32-46, NH2 -Glu-Glu-Ala-Tyr-Ile-Pro-Lys-Glu-Gln-Lys-Tyr-Ser-Phe-Leu-Gln-COOH] (H-EEAYIPKEQKYSFLQ-OH)
[2]
  Plasma Glucose (mg/dL at 60 min.), Glucose + Insulin + peptide, Mouse db/db: 134 ± 13 mg/dL
  Plasma Glucose (mg/dL at 60 min.), Glucose + Insulin + peptide, Mouse db/m (normal): 49 ± 12 mg/dL
  Plasma Glucose (mg/dL at 60 min.), Glucose + Insulin + peptide, Mouse ob/+ (normal): 56 ± 9 mg/dL
  Plasma Glucose (mg/dL at 60 min.), Glucose + Insulin + peptide, Mouse ob/ob: 138 ± 11 mg/dL
[4]; insulin-stimulated fat cells of older obese rats, Frigeri et al.
  in vitro glucose utilization of fat cells: in vitro increase in glucose utilization
[6]; contemporaneously administered with exogenous insulin
  potentiation of insulin activity: potentiate insulin activity and augment the hypoglycemic effectiveness of even quite small parenteral doses of insulin
[6]; various model animal test systems
  hypoglycemic effects of the peptide alone: lacked hypoglycemic effects
[7]
  glucose tolerance: unspecified degree of improvement in glucose tolerance
Sprague-Dawley rats; glucose administered orally (1 ml of 270 mg/ml) + insulin 0.001 mU/10 g + peptide 5 μg/10 g
  Plasma Glucose (mg/dL at 60 min.), Glucose + Insulin + peptide, Rat* (normal): 93.3 ± 14 mg/dL
Sprague-Dawley rats
  Plasma Glucose (mg/dL at 60 min.), Glucose + Insulin + peptide, Rat (normal): 73 ± 10 mg/dL
Normal rats [8]
  late increases in free fatty acids and glycemic effects: did not show either the late increases in free fatty acids nor the glycemic effects which are characteristic of intact hGH
[3]; +5 min., oral glucose + i.m. insulin + peptide 0.1 ml/kg of 1.0 mg/ml
  Plasma Glucose (mg/dL), Glucose + Insulin + hGH32-46, +5 min.: 64 ± 4 mg/dL
[3]; +15 min., oral glucose + i.m. insulin + peptide 0.1 ml/kg of 1.0 mg/ml
  Plasma Glucose (mg/dL), Glucose + Insulin + hGH32-46, +15 min.: 69 ± 9 mg/dL
[3]; +30 min., oral glucose + i.m. insulin + peptide 0.1 ml/kg of 1.0 mg/ml
  Plasma Glucose (mg/dL), Glucose + Insulin + hGH32-46, +30 min.: 80 ± 5.3 mg/dL
[3]; +45 min., oral glucose + i.m. insulin + peptide 0.1 ml/kg of 1.0 mg/ml
  Plasma Glucose (mg/dL), Glucose + Insulin + hGH32-46, +45 min.: 80 ± 5.9 mg/dL
[3]; +60 min., oral glucose + i.m. insulin + peptide 0.1 ml/kg of 1.0 mg/ml
  Plasma Glucose (mg/dL), Glucose + Insulin + hGH32-46, +60 min.: 96 ± 8 mg/dL
[3]; +120 min., oral glucose + i.m. insulin + peptide 0.1 ml/kg of 1.0 mg/ml
  Plasma Glucose (mg/dL), Glucose + Insulin + hGH32-46, +120 min.: 97 ± 6.6 mg/dL
